Experimental data reported in publication PMC12865225 (Clinical and Translational Science, 2026).

How the values were obtained:
[1] = target: T1, OATP1B1 (Homo sapiens, UniProt Q9Y6L6); experiment: Determination of inhibition constant Ki for OATP1B1, rosuvastatin; assay type: cell-based; conditions: rosuvastatin 1-80 µM, 30 min preincubation, 2 min; read-out: Ki-value for the competitive inhibition of OATP1B1
T1 construct: expressed in transfected cells; host or cells: HEK293 (recombinant baculovirus-mediated transduction)
T1 sequence (Q9Y6L6 1-691): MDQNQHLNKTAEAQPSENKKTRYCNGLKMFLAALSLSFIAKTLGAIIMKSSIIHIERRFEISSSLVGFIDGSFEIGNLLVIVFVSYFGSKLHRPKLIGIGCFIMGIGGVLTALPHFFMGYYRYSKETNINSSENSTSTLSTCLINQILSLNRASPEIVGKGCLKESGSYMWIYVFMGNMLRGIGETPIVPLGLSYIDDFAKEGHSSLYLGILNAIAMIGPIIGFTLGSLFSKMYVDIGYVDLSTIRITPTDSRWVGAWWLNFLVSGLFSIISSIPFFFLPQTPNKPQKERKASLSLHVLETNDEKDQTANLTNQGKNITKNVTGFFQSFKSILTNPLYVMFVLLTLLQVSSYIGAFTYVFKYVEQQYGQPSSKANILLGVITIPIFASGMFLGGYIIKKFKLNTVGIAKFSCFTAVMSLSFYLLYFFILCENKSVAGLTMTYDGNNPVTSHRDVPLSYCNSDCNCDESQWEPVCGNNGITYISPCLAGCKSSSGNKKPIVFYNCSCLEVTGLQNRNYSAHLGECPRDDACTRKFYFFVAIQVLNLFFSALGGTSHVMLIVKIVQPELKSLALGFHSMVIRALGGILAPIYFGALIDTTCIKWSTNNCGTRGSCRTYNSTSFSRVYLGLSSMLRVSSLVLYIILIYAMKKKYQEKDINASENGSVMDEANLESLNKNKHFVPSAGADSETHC
Procedure: were removed and 300 µl of warm TP-buffer was added to each well and incubated for 5 min.
The washing was repeated twice , after which the transport assays were conducted in the presence of 1 µM 2′,7′ -dichlorofluorescein for 5 min. The wells that were pre -incubated with […]
incubated with the vehicle contained three different inhibitor concentrations. After the transport assays, the samples were treated and analyzed similarly as described in the main text and above. The uptake into vehicle control samples w as set to a value of 100% and all the inhibitor samples are presented relative to the vehicle control samples. […]
determined in a single experiment in triplicate samples by using 1 µM, 4 µM and 20 µM […]
µM, 2.5 µM, 10 µM, 20 µM, 40 µM and 80 µM). The assays included a 30 min preincubation step with the inhibitor , and the transport assays were conducted for 2 min . Further details are reported in the methods of the main text. The Ki value was calculated by fitting the com petitive inhibition model to the data with the nonlinear least squares method (nls) in R programming language environment (R version 4.3.1) :
Uptake refers to the rate of uptake in OATP1B1-expressing cells, after subtracting the uptake in control cells , Vmax is the maximum rate of transport, K m is the Michaelis constant, S is the […]
Efflux transport assays in HEK293 membrane vesicles […]

[2] = cited from earlier work
[3] = PBPK model input parameters (binding, absorption, distribution, elimination), Simcyp; parameters: species or system human
Procedure: The volume of distribution
at steady-state (Vss), predicted using the Rodgers and Rowland model (Model 2) within the
oral (PO) data.7–9,11,12,14,24 Only studies with 1000 mg dosing or lower were included in the
model development and verification due to the possible nonlinear renal clearance of
(CLH) as a human liver microsomal clearance from the in vivo CLH calculated by subtracting
the CLR from the total CL. The model for oral dosing was optimized using data from the study
by Putnam et al. (2005).9 The absorption rate constant (ka) was calculated from the reported
mean absorption time9 and the fraction absorbed (fa) was optimized manually. The obtained
Tissue distribution was described using the full-body PBPK model, with the tissue-to-plasma
partition coefficient (Kp) predicted based on the Rodgers and Rowland method integrated
within the simulator (Method 2). The Kp value for adipose was optimized manually (0.04 to

[4] = test system: CYP3A4; conditions: model input; cited from earlier work
[5] = retrograde calculation from CLH (2.65 l/h)

Row | Ki [1] [µM] | CLH ([3]; Total CL – CLR) [L/h] | CLu,int,CYP2C9 (µl/min/pmol P450) [3, 5] [µl/min/pmol P450] | CLu,int,CYP3A4 (µl/min/pmol P450) [3, 5] [µl/min/pmol P450] | SMILES | decrease of renal clearance by probenecid [2] [fold] | increase of C max and AUC by cyclosporine and probenecid [2] [fold] | CYP3A4 Indmax [4]
1 | 3.65 |  |  |  | Cc1onc(-c2c(Cl)cccc2Cl)c1C(=O)N[C@@H]1C(=O)N2[C@@H]1SC(C)(C)[C@@H]2C(=O)O [Dicloxacillin] | 4 | < 2 | 
2 |  | 2.65 | 0.124 | 0.062 | Cc1onc(-c2c(F)cccc2Cl)c1C(=O)N[C@@H]1C(=O)N2[C@@H]1SC(C)(C)[C@@H]2C(=O)O [Flucloxacillin] |  |  | 4.6
